Assay results reported in patent US11866437B1, “1,2-dioxo-2,3-dihydro-1H-pyrrolo[2,3-c]quinoline-7-carboxylic acid compounds as CK2 inhibitors” (KING FAISAL UNIVERSITY, priority 2023, dated 2024).

What was measured:
MIAPaCa-2 (pancreas) = test: In vitro cytotoxic activity MTT assay, MIAPaCa-2; type: cell-based; details: Homo sapiens, MIA PaCa-2; MIAPaCa-2 cells, exposed for 96 hours; read-out: IC50, 50% inhibition of cell proliferation, MIAPaCa-2 (pancreas)
Description: (§1) Compounds 1-16 were screened for their in vitro cytotoxic activity utilizing a 3-(4,5-dimethyl-thiazol-2-yl)-2,5-diphenyltetrazolium bromide (MTT) assay against selected cancer human cell lines consisting of PC3 (prostate), HCT116 (colon), A375 (melanoma), H1299 (lung), MIAPaCa-2 (pancreas), HL60 (leukemia), MCF7 (breast), MDA-MB-231 (breast) (T. Mosmann, J. Immunol. Meth., 1983, 65, 55-63). The cells were cultured at 37° C. in RMPI1640 medium supplemented with 10% fetal bovine serum, 50 IU/mL penicillin, and 50 μg/mL streptomycin in a 5% CO2 incubator. All cells were sub-cultured 3 times/week by trypsinisation. Viable cells were seeded and allowed to adhere for 12 h before a test drug was added in 96-well plates at an initial density of 1.0×10^5 cells/mL. Tumour cell lines were separately exposed to various concentrations of the tested compounds followed by incubation at a temperature of 37° C. during 96 h inside a medium of fresh RMPI 1640. Cells were subsequently incubated at 37° C. using MTT at 0.5 mg/mL during 4 h. After removal of supernatant, formazan crystals were dissolved in isopropanol and the optical density was measured at 570 nm. CX-4945 was used as a positive control.

MDA-MB-231 (breast) = test: In vitro cytotoxic activity MTT assay, MDA-MB-231; type: cell-based; details: Homo sapiens; MDA-MB-231 cells, exposed for 96 hours; read-out: IC50, 50% inhibition of cell proliferation, MDA-MB-231 (breast)
Description: as §1

recombinant human CK2 = biological target: T1, recombinant human CK2 (Homo sapiens, UniProt P68400); test: CK2 Kinase Assay (33P-ATP, substrate peptide RRRDDDSDDD); type: biochemical; details: final ATP concentration 15 μM, 10 min at 30° C.; read-out: protein kinase CK2 IC50
T1 construct: purchased Millipore
T1 sequence (P68400 whole entry): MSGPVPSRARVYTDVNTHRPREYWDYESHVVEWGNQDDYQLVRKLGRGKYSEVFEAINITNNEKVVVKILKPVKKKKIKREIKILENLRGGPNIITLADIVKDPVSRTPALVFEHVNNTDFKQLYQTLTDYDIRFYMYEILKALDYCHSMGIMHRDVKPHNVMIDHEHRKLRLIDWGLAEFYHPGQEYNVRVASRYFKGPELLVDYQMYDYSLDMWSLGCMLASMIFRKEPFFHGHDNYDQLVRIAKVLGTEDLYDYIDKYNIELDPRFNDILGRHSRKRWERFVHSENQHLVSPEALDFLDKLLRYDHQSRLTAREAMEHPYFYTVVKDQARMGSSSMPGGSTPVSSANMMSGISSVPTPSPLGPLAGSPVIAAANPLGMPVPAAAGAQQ
T1 sequence (P67870 whole entry partner): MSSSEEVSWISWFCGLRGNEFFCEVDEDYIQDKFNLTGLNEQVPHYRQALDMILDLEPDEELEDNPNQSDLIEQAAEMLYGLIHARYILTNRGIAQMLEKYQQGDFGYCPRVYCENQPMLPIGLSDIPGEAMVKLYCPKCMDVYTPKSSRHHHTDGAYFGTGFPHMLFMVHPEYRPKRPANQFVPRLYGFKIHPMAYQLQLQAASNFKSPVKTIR
Description: CK2 Kinase Assay was conducted using the protocol as described in Pierre F. et al; J. Med. Chem. 2011, 54, 635-654. The tested compounds in aqueous solution were added at a volume of 10 μL to a reaction mixture comprising 10 μL of assay dilution buffer (ADB; 20 mM MOPS, pH 7.2, 25 mM β-glycerol phosphate, 5 mM EGTA, 1 mM sodium orthovanadate, and 1 mM dithiothreitol), 10 μL of substrate peptide (RRRDDDSDDD, dissolved in ADB at a concentration of 1 mM), 10 μL of recombinant human CK2 (RR-holoenzyme, 25 ng dissolved in ADB; Millipore). Reactions were initiated by the addition of 10 μL of ATP solution (90% 75 mMMgCl2, 75 μM ATP (final ATP concentration:15 μM) dissolved in ADB; 10% [γ-33P] ATP (stock 1 mCi/100 μL; 3000 Ci/mmol (Perkin-Elmer) and maintained for 10 min at 30° C. The reactions were quenched with 100 μL of 0.75% phosphoric acid and then transferred to and filtered through a phosphor cellulose filter plate (Millipore). After washing each well five times with 0.75% phosphoric acid, the plate was dried under vacuum for 5 min and, following the addition of 15 μL of scintillation fluid to each well, the residual radioactivity was measured using a Wallac […] counter. The IC50 values were derived from eight concentrations of test inhibitors.

H1299 (lung) = test: In vitro cytotoxic activity MTT assay, H1299; type: cell-based; details: Homo sapiens, NCI-H1299; H1299 cells, exposed for 96 hours; read-out: IC50, 50% inhibition of cell proliferation, H1299 (lung)
Description: as §1

PC3 (prostate) = test: In vitro cytotoxic activity MTT assay, PC3; type: cell-based; details: Homo sapiens, PC-3; PC3 cells, exposed for 96 hours; read-out: IC50, 50% inhibition of cell proliferation, PC3 (prostate)
Description: as §1

HL60 (leukemia) = test: In vitro cytotoxic activity MTT assay, HL60; type: cell-based; details: Homo sapiens, HL-60; HL60 cells, exposed for 96 hours; read-out: IC50, 50% inhibition of cell proliferation, HL60 (leukemia)
Description: as §1

HCT116 (colon) = test: In vitro cytotoxic activity MTT assay, HCT116; type: cell-based; details: Homo sapiens, HCT-116; HCT116 cells, exposed for 96 hours; read-out: IC50, 50% inhibition of cell proliferation, HCT116 (colon)
Description: as §1

A375 (melanoma) = test: In vitro cytotoxic activity MTT assay, A375; type: cell-based; details: Homo sapiens, A-375; A375 cells, exposed for 96 hours; read-out: IC50, 50% inhibition of cell proliferation, A375 (melanoma)
Description: as §1

MCF7 (breast) = test: In vitro cytotoxic activity MTT assay, MCF7; type: cell-based; details: Homo sapiens; MCF7 cells, exposed for 96 hours; read-out: IC50, 50% inhibition of cell proliferation, MCF7 (breast)
Description: as §1

Which results are given for O=C1Nc2c(Nc3cccc(Cl)c3)nc3cc(C(=O)O)ccc3c2C1=O [Compound 1, 4-((3-chlorophenyl)amino)-1,2-dioxo-2,3-dihydro-1H-pyrrolo[2,3-c]quinoline-7-carboxylic acid]?
IC50 (MIAPaCa-2 (pancreas)): 1500 nM; IC50 (MDA-MB-231 (breast)): 3800 nM; IC50 (recombinant human CK2): 19 nM; IC50 (H1299 (lung)): 1600 nM; IC50 (PC3 (prostate)): 900 nM; IC50 (HL60 (leukemia)): 2900 nM; IC50 (HCT116 (colon)): 1100 nM; IC50 (A375 (melanoma)): 2300 nM; IC50 (MCF7 (breast)): 5100 nM
